Reference: patent US20260183350A1, “ANTIBIOTIC-RESISTANT BACTERIA” (priority 2022, published 2026)

How the values were obtained:
[1] = tested on: vancomycin-resistant E. faecalis; assay: VRE nutrient utilization protocol: nitrogen sources, leave-one-out; format: cell-based, Enterococcus faecalis; details: aerobic; leave-one-out from nitrogen source mixture in minimal medium
Protocol: (§1) VRE minimal media consists of potassium phosphate monobasic (4 g/L), potassium phosphate dibasic (14 g/L), sodium citrate (1 g/L), magnesium sulphate (0.2 g/L), ammonium sulphate (2 g/L), adenosine (0.04 g/L), thymine (0.04 g/L), Kao and Michayluk vitamin solution [Sigma, K3129, 50× Stock](5×), glucose (1 g/L) and amino acid solution [Sigma, R7131, RPMI-1640, 50×](25×). If the study was performed under anaerobic conditions, fumarate (5.2 g/L) was added to increase growth of VRE strains. Carbon-free minimal media was prepared by leaving out glucose while nitrogen-free minimal media was prepared without the amino acid solution. Media was filter sterilized with a 0.22 micron filter and used immediately aerobically or degassed overnight if used anaerobically.
(§2) VRE strains were grown on R2A overnight before the cells were suspended in 0.9% saline to an OD of 0.38 (λ=595 nm). A 10% dilution of the cell suspension was prepared using VRE minimal media to achieve a final well OD of […] (λ=595 nm) greater than the sterile media OD. Both carbon and nitrogen source utilization were evaluated by adding the inoculated media and a filter-sterilised nutrient source solution into a well in a 1:1 ration to a final volume of 100 μL in aerobic tests and 200 μL in anaerobic tests. Carbon sources were tested individually and compared to a carbon-free control. To test nitrogen source utilization, a nitrogen source solution was prepared containing L-alanine (2 g/L), L-arginine (2.5 g/L, L-asparagine (0.71 g/L), L-aspartate (0.25 g/L), L-cysteine (0.625 g/L), L-glutamate (0.25 g/L), L-Glycine (0.125 g/L), L-histidine (0.1875 g/L), L-isoleucine (0.625 g/L), L-leucine (0.625 g/L), L-lysine HCl (0.5 g/L), L-methionine (0.1875 g/L), L-phenylalanine (0.1875 g/L), L-proline (0.25 g/L), L-serine (0.375 g/L), L-threonine (0.25 g/L), L-tryptophan (0.0625 g/L), L-tyrosine (0.29 g/L), L-valine (0.25 g/L), N-acetylglucosamine (2 g/L), and uracil (2.5 g/L). To test the strains' ability to utilize individual nitrogen sources, separate solutions were prepared eliminating one nitrogen source each. The change in growth compared to the complete nitrogen source solution control was used to determine nitrogen utilization. All carbon and nitrogen sources were tested in a technical triplicate for each biological replicate. Aerobic plates were incubated with a plate seal while anaerobic plates were not. The aerobic plate reader was set to read the plate (λ=595 nm, 37° C., 22 flashes per well, orbital shaking of 100 rpm for 15 s prior to each read) every 15 minutes for 24 hours. The anaerobic plate reader read the plate (λ=595 nm, 37° C., stationary) every 15 minutes for 24 hours.

[2] = tested on: NDM-1 Enterobacter cloacae; assay: Nitrogen utilisation assay; format: cell-based; details: M9 minimal medium with glucose, 0.1% (w/v) nitrogen source
Protocol: (§3) New Delhi Metallo-β-lactamase 1 (NDM-1) Escherichia coli, NDM-1 Klebsiella pneumoniae, and NDM-1 Enterobacter cloacae were isolated from patients with intestinal CRE colonisation from the Imperial College Healthcare NHS Trust via rectal swab (REC ref. 19/LO/0112). The species were assigned by matrix assisted laser desorption ionization-time of flight (MALDI-TOF) mass spectrometry and later confirmed with 16S rRNA gene sequencing. CRE status was determined using X-pert Carba-R PCR detection (Cepheid, Sunnyvale, CA, USA), (Otter, J. A. et al. Detecting carbapenemase-producing Enterobacterales (CPE): an evaluation of an enhanced CPE infection control and screening programme in acute care. J Antimicrob Chemother 75, 2670-2676 (2020)).
(§4) Growth of CRE isolates on sole carbon or nitrogen sources was tested by inoculating each CRE isolate into a minimal medium supplemented with the nutrient of interest. First, CRE isolates were passaged from frozen glycerol stocks on Reasoner's 2A agar (R2A) plates. Cells were then suspended in M9 minimal media to a turbidity of 42% using a Turbidimeter (Biolog Inc.), then diluted a further 1 in 6 to inoculate the carbon or nitrogen utilisation assays. M9 minimal media contained the following (at final concentrations): 22 mM KH2PO4, 42 mM Na2HPO4, 9 mM NaCl, 0.49 mM MgSO4·7H2O, 0.09 mM CaCl2), 0.011 mM FeSO4·7H2O. For the carbon assays the M9 minimal medium was also supplemented with 0.1% (w/v) NH4Cl (as the nitrogen source) and the carbon sources were individually tested at 0.5% (w/v) concentration. For the nitrogen assays the M9 minimal medium was also supplemented with 0.5% (w/v) glucose (as the carbon source) and the nitrogen sources were individually tested at 0.1% (w/v) concentration. Cultures were incubated anaerobically and aerobically in a plate reader and OD600 readings were collected every 15 minutes for 24 hours.
(§5) Growth curves were analysed in Python (v3.6.5) using the AMiGA software (Midani, F. S., Collins, J. & Britton, R. A. AMiGA: Software for Automated Analysis of Microbial Growth Assays. mSystems 6, e0050821 (2021)). Growth of each isolate was measured with 6 wells from 2-3 independent experiments. Growth curves were normalised to the no substrate control using the subtraction method. AMiGA performed Gaussian Process regression to test differential growth between the substrate and the no substrate control. The functional difference in the OD (and its credible interval) was also computed between the substrate and the no substrate control.

NDM-1 Escherichia coli [3] = assay: Nitrogen utilisation assay; format: cell-based; details: M9 minimal medium with glucose, 0.1% (w/v) nitrogen source
Protocol: as §3, §4, §5

[4] = tested on: NDM-1 Klebsiella pneumoniae; assay: Nitrogen utilisation assay; format: cell-based; details: M9 minimal medium with glucose, 0.1% (w/v) nitrogen source
Protocol: as §3, §4, §5

[5] = tested on: vancomycin-resistant E. faecium; assay: VRE nutrient utilization protocol: nitrogen sources, leave-one-out; format: cell-based, Enterococcus faecium; details: aerobic; leave-one-out from nitrogen source mixture in minimal medium
Protocol: as §1, §2

[6] = tested on: NDM-1 Klebsiella pneumoniae; assay: Carbon utilisation assay; format: cell-based; details: aerobic; M9 minimal medium, 0.5% (w/v) carbon source
Protocol: as §3, §4, §5

[7] = tested on: NDM-1 Enterobacter cloacae; assay: Nutrient preference assay (nutrient mixture); format: cell-based; details: M9 with […] of each nutrient, up to 24 hours
Protocol: as §3
(§6) CRE isolates were passaged once from frozen glycerol stocks on R2A plates. Cells were suspended in M9 minimal media to a turbidity of 42% using a Turbidimeter (Biolog Inc.), then diluted 1 in 6 to inoculate the nutrient preference assays. M9 minimal media was supplemented with 0.015% of each of the following: L-arabinose, D-fructose, L-fucose, D-galactose, D-glucose, D-mannose, D-ribose, D-xylose, N-acetylglucosamine, D-maltose, sucrose, D-trehalose, L-alanine, L-arginine, L-aspartate, L-glutamate, L-glycine, L-isoleucine, L-leucine, L-lysine, L-methionine, L-phenylalanine, L-proline, L-threonine, L-tryptophan, L-tyrosine, L-valine, uracil, and succinate. Cultures were incubated anaerobically and aerobically in a plate reader and OD600 readings were collected every 15 minutes for 24 hours. Cultures were also incubated anaerobically and aerobically for 24 h and samples were collected at 0, 4, 8, and 24 hours post-inoculation for 1H-NMR spectroscopy. Changes in nutrients and metabolites by CRE isolates was compared to the sterile media control over time using a two-way mixed ANOVA followed by pairwise comparisons with Bonferroni correction. […]

NDM-1 Escherichia coli [8] = assay: Nutrient preference assay (nutrient mixture); format: cell-based; details: M9 with […] of each nutrient, up to 24 hours
Protocol: as §3, §6

[9] = tested on: NDM-1 Klebsiella pneumoniae; assay: Nutrient preference assay (nutrient mixture); format: cell-based; details: M9 with […] of each nutrient, up to 24 hours
Protocol: as §3, §6

[10] = tested on: NDM-1 Enterobacter cloacae; assay: Carbon utilisation assay; format: cell-based; details: aerobic; M9 minimal medium, 0.5% (w/v) carbon source
Protocol: as §3, §4, §5

N[C@@H](CS)C(=O)O [cysteine, L-cysteine]
Use as nitrogen source to support E. faecalis growth [1]: could use

CSCC[C@H](N)C(=O)O [methionine, L-methionine]
Use as sole nitrogen source to support E. cloacae growth ([2]; aerobic): able to grow | Use as sole nitrogen source to support E. coli growth (NDM-1 Escherichia coli [3]; aerobic): able to grow | Use as sole nitrogen source to support K. pneumoniae growth ([4]; aerobic): able to grow | Use as nitrogen source to support E. faecium growth [5]: could use | Use as nitrogen source to support E. faecalis growth [1]: could use

O=C(O)[C@@H]1CCCN1 [proline, L-proline]
Use as sole carbon source to support K. pneumoniae growth [6]: able to grow | Utilisation of nutrient by E. cloacae from nutrient mixture (1H-NMR) ([7]; aerobic): not utilised | Utilisation of nutrient by E. cloacae from nutrient mixture (1H-NMR) ([7]; anaerobic): not utilised | Utilisation of nutrient by E. coli from nutrient mixture (1H-NMR) (NDM-1 Escherichia coli [8]; aerobic): not utilised | Utilisation of nutrient by E. coli from nutrient mixture (1H-NMR) (NDM-1 Escherichia coli [8]; anaerobic): not utilised | Utilisation of nutrient by K. pneumoniae from nutrient mixture (1H-NMR) ([9]; anaerobic): not utilised | Use as sole nitrogen source to support E. cloacae growth ([2]; aerobic): able to grow | Use as sole nitrogen source to support E. coli growth (NDM-1 Escherichia coli [3]; aerobic): able to grow | Use as sole nitrogen source to support K. pneumoniae growth ([4]; aerobic): able to grow

N=C(N)NCCC[C@H](N)C(=O)O [arginine, L-arginine]
Utilisation of nutrient by E. cloacae from nutrient mixture (1H-NMR) ([7]; aerobic): high utilisation | Utilisation of nutrient by E. cloacae from nutrient mixture (1H-NMR) ([7]; anaerobic): high utilisation | Use as sole nitrogen source to support E. cloacae growth ([2]; anaerobic): could use | Use as sole nitrogen source to support E. coli growth (NDM-1 Escherichia coli [3]; anaerobic): could use | Use as sole nitrogen source to support K. pneumoniae growth ([4]; aerobic): could use | Use as sole nitrogen source to support K. pneumoniae growth ([4]; anaerobic): could use | Use as nitrogen source to support E. faecium growth [5]: could use | Use as nitrogen source to support E. faecalis growth [1]: could use

N[C@@H](Cc1ccc(O)cc1)C(=O)O [tyrosine, L-tyrosine]
Utilisation of nutrient by E. cloacae from nutrient mixture (1H-NMR) ([7]; aerobic): not utilised | Utilisation of nutrient by E. cloacae from nutrient mixture (1H-NMR) ([7]; anaerobic): not utilised | Use as sole nitrogen source to support E. coli growth (NDM-1 Escherichia coli [3]; aerobic): able to grow

O=c1cc[nH]c(=O)[nH]1 [uracil]
Utilisation of nutrient by E. cloacae from nutrient mixture (1H-NMR) ([7]; aerobic): did not use | Utilisation of nutrient by E. cloacae from nutrient mixture (1H-NMR) ([7]; anaerobic): did not utilise | Utilisation of nutrient by E. coli from nutrient mixture (1H-NMR) (NDM-1 Escherichia coli [8]; aerobic): moderate utilisation | Utilisation of nutrient by E. coli from nutrient mixture (1H-NMR) (NDM-1 Escherichia coli [8]; anaerobic): moderate utilisation | Utilisation of nutrient by K. pneumoniae from nutrient mixture (1H-NMR) ([9]; aerobic): low utilisation | Utilisation of nutrient by K. pneumoniae from nutrient mixture (1H-NMR) ([9]; anaerobic): did not utilise | Use as sole nitrogen source to support E. cloacae growth ([2]; aerobic): able to grow | Use as sole nitrogen source to support E. coli growth (NDM-1 Escherichia coli [3]; aerobic): able to grow | Use as sole nitrogen source to support K. pneumoniae growth ([4]; aerobic): able to grow

CC(C)C[C@H](N)C(=O)O [leucine, L-leucine]
Use as sole nitrogen source to support E. cloacae growth ([2]; aerobic): able to grow | Use as sole nitrogen source to support E. coli growth (NDM-1 Escherichia coli [3]; aerobic): able to grow | Use as sole nitrogen source to support K. pneumoniae growth ([4]; aerobic): able to grow | Use as nitrogen source to support E. faecium growth [5]: could use | Use as nitrogen source to support E. faecalis growth [1]: could use

NCC(=O)O [glycine, L-glycine]
Use as sole nitrogen source to support E. cloacae growth ([2]; aerobic): able to grow | Use as sole nitrogen source to support E. coli growth (NDM-1 Escherichia coli [3]; aerobic): able to grow | Use as sole nitrogen source to support K. pneumoniae growth ([4]; aerobic): able to grow | Use as nitrogen source to support E. faecium growth [5]: could use | Use as nitrogen source to support E. faecalis growth [1]: could use

C[C@H](O)[C@@H](O)[C@@H](O)[C@H](O)C=O [fucose, L-fucose]
Use as sole carbon source to support E. cloacae growth [10]: able to grow | Utilisation of nutrient by K. pneumoniae from nutrient mixture (1H-NMR) ([9]; aerobic): not utilised | Utilisation of nutrient by K. pneumoniae from nutrient mixture (1H-NMR) ([9]; anaerobic): not utilised

C[C@@H](O)[C@H](N)C(=O)O [threonine, L-threonine]
Utilisation of nutrient by E. cloacae from nutrient mixture (1H-NMR) ([7]; aerobic): high utilisation | Utilisation of nutrient by E. cloacae from nutrient mixture (1H-NMR) ([7]; anaerobic): high utilisation | Utilisation of nutrient by E. coli from nutrient mixture (1H-NMR) (NDM-1 Escherichia coli [8]; aerobic): moderate utilisation | Utilisation of nutrient by K. pneumoniae from nutrient mixture (1H-NMR) ([9]; aerobic): high utilisation | Use as sole nitrogen source to support E. cloacae growth ([2]; aerobic): able to grow | Use as sole nitrogen source to support E. coli growth (NDM-1 Escherichia coli [3]; aerobic): able to grow | Use as nitrogen source to support E. faecium growth [5]: could use

N[C@@H](Cc1ccccc1)C(=O)O [phenylalanine, L-phenylalanine]
Use as sole nitrogen source to support E. cloacae growth ([2]; aerobic): able to grow | Use as nitrogen source to support E. faecium growth [5]: could use

N[C@@H](Cc1c[nH]cn1)C(=O)O [histidine, L-histidine]
Use as nitrogen source to support E. faecium growth [5]: could use | Use as nitrogen source to support E. faecalis growth [1]: could use

N[C@@H](CO)C(=O)O [serine, L-serine]
Use as nitrogen source to support E. faecium growth [5]: could use | Use as nitrogen source to support E. faecalis growth [1]: could use

CC[C@H](C)[C@H](N)C(=O)O [isoleucine, L-isoleucine]
Use as sole nitrogen source to support E. cloacae growth ([2]; aerobic): able to grow | Use as sole nitrogen source to support E. coli growth (NDM-1 Escherichia coli [3]; aerobic): able to grow | Use as sole nitrogen source to support K. pneumoniae growth ([4]; aerobic): able to grow | Use as nitrogen source to support E. faecium growth [5]: could use | Use as nitrogen source to support E. faecalis growth [1]: could use

CC(C)[C@H](N)C(=O)O [valine, L-valine]
Use as sole nitrogen source to support E. coli growth (NDM-1 Escherichia coli [3]; anaerobic): could use | Use as nitrogen source to support E. faecium growth [5]: could use | Use as nitrogen source to support E. faecalis growth [1]: could use
